This assay relates to U87 human glioblastoma cells. Format: cell-based. The following applies: MTT test; for IC50: 0.05–50 µM, treated 24 h (method: overnight), washed, further 48 h (method: 72 h) at 37 °C, two independent experiments with four parallel measurements. The procedure: The in vitro cytostatic effect of the synthesized peptide (1) and daunomycin-peptide conjugates (2–8) was investigated on U87 human glioblastoma cells. The cells were treated with the peptide and conjugates at different concentrations (0.05–50 μM) for 24 h, and after a washing step, the cells were incubated for another […] at 37 °C. The cytostatic effect of the compounds was determined using the MTT test.
U87 human glioblastoma cell line was cultured in DMEM supplemented with 10% FBS, 2 mM L-glutamine, penicillin–streptomycin antibiotic mixture (50 IU/mL and 50 μg/mL, respectively), 1 mM sodium pyruvate, and 1% non-essential amino acid mixture. The cell culture was maintained at 37 °C in a humidified atmosphere with 5% CO2. The U87 cell line was a generous gift of Dr. József Tóvári (Department of Experimental Pharmacology, National Institute of Oncology, Budapest, Hungary).
For determining the cytostatic effect of the conjugates, U87 cells were grown to confluency and then divided into 96-well tissue culture plates with an initial cell number of 5.0 × 10^3 cells/well. After 24 h incubation at 37 °C, the cells were treated with the compounds overnight in the concentration range of 0.05–50 μM in 200 μL final volume containing 1.0 v/v% DMSO, whereas control cells were treated only with serum-free medium or with 1.0 v/v% DMSO at the same conditions. After the incubation, cells were washed twice with serum-free medium, then the cells were cultured for an additional 72 h in 10% serum-containing medium at 37 °C. Following that, MTT solution (at c = 0.37 mg/mL final concentration) was added to each well. The respiratory chain [32] and other electron transport systems reduced MTT and thereby formed non-water-soluble violet formazan crystals within the cells. The amount of these crystals can be determined by spectrophotometry and serves as an estimate for the number of mitochondria in addition to the number of living cells in the well [35]. After 3 h of incubation with MTT, the cells were centrifuged for 5 min at 2000 rpm and the supernatant was removed. The obtained formazan crystals were dissolved in DMSO (100 µL), and the optical density (OD) of the samples was measured at λ = 540 nm and 620 nm, respectively, using ELISA Reader (iEMS Reader, Labsystems, Finland). The OD620 values were subtracted from the OD540 values. The percent of cytostasis was calculated with the following equation:(1) Cytostatic effect (%)=1−ODtreated/ODcontrol×100 where the ODtreated and ODcontrol values correspond to the optical densities of the treated and the control wells, respectively. In each case, two independent experiments were carried out with four parallel measurements. Cytostasis was plotted as a function of concentration, and the half-maximal inhibitory concentration was calculated based on a sigmoid curve fitted on the data points using Microcal™ Origin 2018 software. IC50 represents the concentration of a compound that is required for 50% inhibition, expressed in micromolar units.
A general note: Tetrazolium assays rely on reduction of a dye to a coloured formazan, in cell work by metabolically active cells.

One may read the IC50 as the concentration that inhibits the measured activity by half. As to `C[C@@H](O)[C@H](N)C(=O)N[C@@H](Cc1ccccc1)C(=O)N[C@@H](Cc1ccccc1)C(=O)N[C@@H](Cc1ccc(O)cc1)C(=O)NCC(=O)NCC(=O)N[C@@H](CO)C(=O)N[C@@H](CCCNC(=N)N)C(=O)NCC(=O)N[C@@H](CCCCN)C(=O)N[C@@H](CCCNC(=N)N)C(=O)N[C@@H](CC(N)=O)C(=O)N[C@@H](CC(N)=O)C(=O)N[C@@H](Cc1ccccc1)C(=O)N[C@@H](CCCCN)C(=O)N[C@H](C(=O)N[C@@H](CCC(=O)O)C(=O)N[C@@H](CCC(=O)O)C(=O)N[C@@H](Cc1ccc(O)cc1)C(=O)O)[C@@H](C)O` [compound 1, H-TFFYGGSRGKRNNFKTEEY-OH, reference compound], the IC50 was above 50 µM. The “in vitro cytostatic effect (in words)” value (up to 50 µM) is “did not show any effect”.

For `COc1cccc2c1C(=O)c1c(O)c3c(c(O)c1C2=O)C[C@@](O)(C(C)=NOCC(=O)NCCCC[C@H](NC(=O)[C@H](Cc1ccccc1)NC(=O)[C@H](CC(N)=O)NC(=O)[C@H](CC(N)=O)NC(=O)[C@H](CCCNC(=N)N)NC(=O)[C@H](CCCCN)NC(=O)CNC(=O)[C@H](CCCNC(=N)N)NC(=O)[C@H](CO)NC(=O)CNC(=O)CNC(=O)[C@H](Cc1ccc(O)cc1)NC(=O)[C@H](Cc1ccccc1)NC(=O)[C@H](Cc1ccccc1)NC(=O)[C@@H](N)[C@@H](C)O)C(=O)N[C@H](C(=O)N[C@@H](CCC(=O)O)C(=O)N[C@@H](CCC(=O)O)C(=O)N[C@@H](Cc1ccc(O)cc1)C(=O)O)[C@@H](C)O)C[C@@H]3O[C@H]1C[C@H](N)[C@H](O)[C@H](C)O1` [compound 2, H-TFFYGGSRGKRNNFK(Dau=Aoa)TEEY-OH], the IC50 is 30.2 ± 6.4 µM.

Take `COc1cccc2c1C(=O)c1c(O)c3c(c(O)c1C2=O)C[C@@](O)(C(C)=NOCC(=O)NCCCC[C@H](NC(=O)[C@H](Cc1ccccc1)NC(=O)[C@H](CC(N)=O)NC(=O)[C@H](CC(N)=O)NC(=O)[C@H](CCCNC(=N)N)NC(=O)[C@H](CCCCN)NC(=O)CNC(=O)[C@H](CCCNC(=N)N)NC(=O)[C@H](CO)NC(=O)CNC(=O)CNC(=O)[C@H](Cc1ccc(O)cc1)NC(=O)[C@H](Cc1ccccc1)NC(=O)[C@H](Cc1ccccc1)NC(=O)[C@@H](NC(=O)CON=C(C)[C@]1(O)Cc2c(O)c4c(c(O)c2[C@@H](O[C@H]2C[C@H](N)[C@H](O)[C@H](C)O2)C1)C(=O)c1c(OC)cccc1C4=O)[C@@H](C)O)C(=O)N[C@H](C(=O)N[C@@H](CCC(=O)O)C(=O)N[C@@H](CCC(=O)O)C(=O)N[C@@H](Cc1ccc(O)cc1)C(=O)O)[C@@H](C)O)C[C@@H]3O[C@H]1C[C@H](N)[C@H](O)[C@H](C)O1` [compound 5, Dau=Aoa-TFFYGGSRGKRNNFK(Dau=Aoa)TEEY-OH]: the IC50 came to 32.3 ± 8.1 µM.

`COc1cccc2c1C(=O)c1c(O)c3c(c(O)c1C2=O)C[C@@](O)(C(C)=NOCC(=O)NCCCC[C@H](NC(=O)CNC(=O)[C@H](CCCNC(=N)N)NC(=O)[C@H](CO)NC(=O)CNC(=O)CNC(=O)[C@H](Cc1ccc(O)cc1)NC(=O)[C@H](Cc1ccccc1)NC(=O)[C@H](Cc1ccccc1)NC(=O)[C@@H](N)[C@@H](C)O)C(=O)N[C@@H](CCCNC(=N)N)C(=O)N[C@@H](CC(N)=O)C(=O)N[C@@H](CC(N)=O)C(=O)N[C@@H](Cc1ccccc1)C(=O)N[C@@H](CCCCNC(=O)CON=C(C)[C@]1(O)Cc2c(O)c4c(c(O)c2[C@@H](O[C@H]2C[C@H](N)[C@H](O)[C@H](C)O2)C1)C(=O)c1c(OC)cccc1C4=O)C(=O)N[C@H](C(=O)N[C@@H](CCC(=O)O)C(=O)N[C@@H](CCC(=O)O)C(=O)N[C@@H](Cc1ccc(O)cc1)C(=O)O)[C@@H](C)O)C[C@@H]3O[C@H]1C[C@H](N)[C@H](O)[C@H](C)O1` [compound 6, H-TFFYGGSRGK(Dau=Aoa)RNNFK(Dau=Aoa)TEEY-OH] came in with an IC50 of 21.6 ± 5.4 µM.
